# From patent US5250679A, “Nonpeptidyl platelet aggregation inhibitors having specificity for the GPIIb III receptor” (Genentech, Inc., priority 1992, dated 1993)
# Where a name gives a salt, the structure may show the parent alone. Read-outs that look alike come from different tables or passages of the source.
# Molecular target: T1, GP IIb IIIa (Homo sapiens, UniProt P05106+P08514)
# T1 construct: from tissue; host or cells: outdated human platelets
# Experiment: Fibrinogen-GP IIb IIIa Receptor ELISA Binding Assay (Fg/IIbIIIa)
# Protocol: Briefly, microtiter plates are coated with fibrinogen (10 mg/ml) and then blocked with TACTS buffer containing 0.5% bovine serum albumin (BSA). […] After another wash a goat anti-mouse IgG conjugated to horseradish peroxidase is added. […] The reaction is stopped with 1N sulfuric acid and the absorbance at 492 nm is recorded. […] Outdated human platelets are washed 3 times with 10 mM tris-HCl, 150 mM NaCl (TBS), 1 mM EDTA, pH 7.5, and centrifuged at 2000×g to pellet cells. […] The supernatant fraction is collected and the supernatant is loaded onto a concanavalin-A column, previously equilibrated in TBS, 1 mM Ca2 Cl2, 0.1% Triton, 0.05% NaN3 and eluted with 0.2M a-methylmannoside. Fractions are pooled and loaded onto a heparin-agarose column. The flowthrough is collected and concentrated on an Amicon YM 30 filter to a volume of approximately 5-10 ml. The concentrate is then applied to an S-300 column (500 ml) and 6 ml fractions are collected. The GP IIb IIIa containing fractions are collected, pooled, and stored at -80° C. […] The precipitate is spun down in appropriate size bottles at 2000×g. The supernatant is decanted and the precipitate resuspended in 150 mM NaCl (approximately 50% of the original volume). […] The suspension is spun down and the precipitate is resuspended in Tris-saline in a minimal volume (approximately 5% of the original volume). Any remaining insoluble material is spun down at 2000 rpm in a Sorval type centrifuge and the fibrinogen supernatant is decanted and dialyzed overnight at 4° C. against Tris-saline. Characterization of the fibrinogen is by the Bradford protein assay, SDS-PAGE, and/or Western blotting using well known standard procedures. Briefly, 96 well plates are coated (Type Nunc 1 MaxisorpTM) with 10 mg/ml purified fibrinogen ([…]), and allowed to stand overnight at 4° C. […] The plates are again washed three times with PBS/Tween and then […] of sample in TNCNT is added. The mixture is incubated for 15 minutes at room temperature on a plate shaker. […] Fifty ml of this diluted GP IIb IIIa is then added to each well and incubated on a plate shaker at room temperature. After one hour, the plates are washed four times with PBS/Tween and 100 ml of a polyclonal or monoclonal antibody specific for GP IIIa such as AP3 (1 mg/ml) (See e.g. […] After a one hour incubation at room temperature on a plate shaker, the samples are washed 4 times with PBS/Tween. […] The color develops within about 3 to 20 minutes and the reaction is stopped with 100 ml 1M H2 SO4. The optical density at 492 nm vs 405 nm is recorded and IC50 values are determined.
# [1] = Example 29, Cmpd # 1-105, read-out: IC50 Fg/IIbI
# [2] = Examples 29 and 30, Cmpd # tables, read-out: IC50 (μM) Fg/IIbIIIa
# T1 sequence (P08514 32-887 limits assumed): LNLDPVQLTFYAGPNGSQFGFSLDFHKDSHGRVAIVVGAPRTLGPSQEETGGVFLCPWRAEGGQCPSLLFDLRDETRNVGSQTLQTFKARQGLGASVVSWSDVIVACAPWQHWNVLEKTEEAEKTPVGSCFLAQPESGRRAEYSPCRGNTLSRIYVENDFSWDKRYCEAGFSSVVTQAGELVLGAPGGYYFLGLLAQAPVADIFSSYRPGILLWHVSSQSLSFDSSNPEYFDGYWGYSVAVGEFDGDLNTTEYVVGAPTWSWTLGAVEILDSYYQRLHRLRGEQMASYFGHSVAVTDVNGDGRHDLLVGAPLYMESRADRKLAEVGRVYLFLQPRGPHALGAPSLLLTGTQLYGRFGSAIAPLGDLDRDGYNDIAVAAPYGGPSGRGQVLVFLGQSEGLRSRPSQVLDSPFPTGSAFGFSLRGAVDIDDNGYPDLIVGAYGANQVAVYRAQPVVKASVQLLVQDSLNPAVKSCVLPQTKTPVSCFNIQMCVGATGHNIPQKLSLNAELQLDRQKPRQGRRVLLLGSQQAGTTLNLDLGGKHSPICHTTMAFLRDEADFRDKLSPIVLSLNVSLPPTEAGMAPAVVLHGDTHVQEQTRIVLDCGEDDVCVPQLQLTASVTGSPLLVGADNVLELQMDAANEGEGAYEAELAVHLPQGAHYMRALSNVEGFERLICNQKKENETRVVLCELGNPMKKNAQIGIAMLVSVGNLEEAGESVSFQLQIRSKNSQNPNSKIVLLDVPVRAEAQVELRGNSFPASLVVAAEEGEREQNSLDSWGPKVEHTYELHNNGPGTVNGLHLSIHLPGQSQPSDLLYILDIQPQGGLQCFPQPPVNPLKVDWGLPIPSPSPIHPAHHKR
# T1 sequence (P08514 891-1039 partner limits assumed): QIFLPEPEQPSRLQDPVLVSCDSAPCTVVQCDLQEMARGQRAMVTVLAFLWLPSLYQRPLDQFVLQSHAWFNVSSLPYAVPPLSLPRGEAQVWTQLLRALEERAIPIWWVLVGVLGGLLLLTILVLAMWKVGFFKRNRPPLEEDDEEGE
# T1 sequence (P05106 27-788): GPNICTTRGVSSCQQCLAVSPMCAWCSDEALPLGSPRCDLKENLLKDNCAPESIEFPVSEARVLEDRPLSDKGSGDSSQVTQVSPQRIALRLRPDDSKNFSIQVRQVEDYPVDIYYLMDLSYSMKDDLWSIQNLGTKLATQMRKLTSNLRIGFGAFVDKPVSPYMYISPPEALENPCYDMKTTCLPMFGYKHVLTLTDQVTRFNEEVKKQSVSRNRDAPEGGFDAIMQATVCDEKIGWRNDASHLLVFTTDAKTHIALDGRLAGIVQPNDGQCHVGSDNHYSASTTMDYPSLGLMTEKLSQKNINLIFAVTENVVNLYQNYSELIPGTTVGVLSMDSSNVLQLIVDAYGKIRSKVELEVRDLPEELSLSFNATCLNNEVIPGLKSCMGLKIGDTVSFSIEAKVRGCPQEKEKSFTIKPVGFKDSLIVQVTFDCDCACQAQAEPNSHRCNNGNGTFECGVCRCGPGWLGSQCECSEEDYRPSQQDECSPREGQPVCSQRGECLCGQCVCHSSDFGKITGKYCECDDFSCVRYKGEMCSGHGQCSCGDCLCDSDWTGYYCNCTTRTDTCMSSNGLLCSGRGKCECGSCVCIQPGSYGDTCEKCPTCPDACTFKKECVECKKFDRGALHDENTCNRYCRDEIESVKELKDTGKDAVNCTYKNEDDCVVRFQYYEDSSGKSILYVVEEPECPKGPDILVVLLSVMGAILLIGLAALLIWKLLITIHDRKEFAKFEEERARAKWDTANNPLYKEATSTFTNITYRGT
SMILES,IC50 [1],IC50 [2]
"N=C(N)NCCCCCc1ccc2c(c1)C(=O)N(CCC(=O)O)CC(=O)N2Cc1ccc(C(F)(F)F)cc1 [Cmpd 93, 1-(p-trifluoromethylbenzyl)-4-(2-carboxyethyl)-7-(5-guanidinopentyl)-3,4-dihydro-1H-1,4-benzodiazepine-2,5-dione trifluoroacetate]",0.014 µM,
"NCCCCCCc1ccc2c(c1)C(=O)N(CCC(=O)O)CC(=O)N2Cc1cccc(Oc2ccccc2)c1 [Cmpd 94, 1-(m-phenoxybenzyl)-4-(2-carboxyethyl)-7-(6-aminohexyl)-3,4-dihydro-1H-1,4-benzodiazepine-2,5-dione trifluoroacetate]",0.009 µM,
"NCCCCCc1ccc2c(c1)C(=O)N(CCC(=O)O)CC(=O)N2Cc1cccc(Oc2ccccc2)c1 [Cmpd 95, 1-(m-phenoxybenzyl)-4-(2-carboxyethyl)-7-(5-aminopentyl)-3,4-dihydro-1H-1,4-benzodiazepine-2,5-dione trifluoroacetate]",0.108 µM,
"NCCCCCc1ccc2c(c1)C(=O)N(CCC(=O)O)CC(=O)N2Cc1ccc(C(F)(F)F)cc1 [Cmpd 96, 1-(p-trifluoromethylbenzyl)-4-(2-carboxyethyl)-7-(5-aminopentyl)-3,4-dihydro-1H-1,4-benzodiazepine-2,5-dione trifluoroacetate]",0.186 µM,
NCCCC#Cc1ccc2c(c1)C(=O)N(CCC(=O)O)CC(=O)N2Cc1ccc(F)cc1F [Cmpd 97],0.13 µM,
N=C(N)NCCCC#Cc1ccc2c(c1)C(=O)N(CCC(=O)O)CC(=O)N2Cc1ccc(F)cc1F [Cmpd 98],0.024 µM,
NCCCCC#Cc1ccc2c(c1)C(=O)N(CCC(=O)O)CC(=O)N2Cc1ccc(F)cc1F [Cmpd 99],0.027 µM,
N=C(N)NCCCCC#Cc1ccc2c(c1)C(=O)N(CCC(=O)O)CC(=O)N2Cc1ccc(F)cc1F [Cmpd 100],0.025 µM,
NCCCCCc1ccc2c(c1)C(=O)N(CCC(=O)O)CC(=O)N2Cc1ccc(F)cc1F [Cmpd 101],0.2 µM,
N=C(N)NCCCCCc1ccc2c(c1)C(=O)N(CCC(=O)O)CC(=O)N2Cc1ccc(F)cc1F [Cmpd 102],0.016 µM,
"NCCCCCCc1ccc2c(c1)C(=O)N(CCC(=O)O)CC(=O)N2Cc1ccc(F)cc1F [Cmpd 103, 1-(2,4-difluorophenyl)methyl-4-(2-carboxyethyl)-7-(6-aminohexyl)-3,4-dihydro-1H-1,4-benzodiazapine-2,5-dione]",0.021 µM,
N=C(N)NCCCCCCc1ccc2c(c1)C(=O)N(CCC(=O)O)CC(=O)N2Cc1ccc(F)cc1F [Cmpd 104],0.038 µM,
CC(=O)NCCCCCCc1ccc2c(c1)C(=O)N(CCC(=O)O)CC(=O)N2Cc1ccc(Cl)cc1 [Cmpd 105],8.5 µM,
NCCCC#Cc1ccc2c(c1)C(=O)N(CCC(=O)O)CC(=O)N2Cc1cccc(NC(=O)CN)c1 [Cmpd 106],,0.068 µM
NCCCCCCc1ccc2c(c1)C(=O)N(CCC(=O)O)CC(=O)N2Cc1ccc(NC(=O)CCN)cc1 [Cmpd 118],,0.019 µM
N=C(N)NCCCCCCc1ccc2c(c1)C(=O)N(CCC(=O)O)CC(=O)N2Cc1ccc(NC(=O)CCNC(=N)N)cc1 [Cmpd 119],,0.013 µM
NCCCCCCc1ccc2c(c1)C(=O)N(CCC(=O)O)CC(=O)N2Cc1cccc(CCCCN)c1 [Cmpd 120],,0.024 µM
N=C(N)NCCCCCCc1ccc2c(c1)C(=O)N(CCC(=O)O)CC(=O)N2Cc1cccc(CCCCNC(=N)N)c1 [Cmpd 121],,0.02 µM
NCCCCCCc1ccc2c(c1)C(=O)N(CCC(=O)O)CC(=O)N2CCCCCN [Cmpd 125],,0.064 µM
N=C(N)NCCCCCCc1ccc2c(c1)C(=O)N(CCC(=O)O)CC(=O)N2CCCCCNC(=N)N [Cmpd 126],,0.04 µM
NCCCCCCc1ccc2c(c1)C(=O)N(CCC(=O)O)CC(=O)N2Cc1ccc(N)cc1 [Cmpd 128],,0.024 µM
N=C(N)NCCCCCc1ccc2c(c1)C(=O)N(CCC(=O)O)CC(=O)N2CCCCC(=O)O [Cmpd 131],,0.014 µM

SMILES,IC50 [1],IC50 [2]
NCCCCCc1ccc2c(c1)C(=O)N(CCC(=O)O)CC(=O)N2CCCCC(=O)O [Cmpd 132],,0.931 µM
N=C(N)NCCCCCc1ccc2c(c1)C(=O)N(CCC(=O)O)CC(=O)N2Cc1ccc(C(=O)O)cc1 [Cmpd 133],,0.016 µM
N=C(N)NCCCCCCc1ccc2c(c1)C(=O)N(CCC(=O)O)CC(=O)N2Cc1ccc(C(=O)O)cc1 [Cmpd 134],,0.019 µM
"NCCCCCCc1ccc2c(c1)C(=O)N(CCC(=O)O)CC(=O)N2Cc1ccc(C(=O)O)cc1 [Cmpd 135, 1-(4-carboxyphenyl)methyl-4-(2-carboxyethyl)-7-(6-aminohexyl)-3,4-dihydro-1H-1,4-benzodiazapine-2,5-dione]",,0.008 µM
NCCCCCc1ccc2c(c1)C(=O)N(CCC(=O)O)CC(=O)N2Cc1ccc(C(=O)O)cc1 [Cmpd 136],,0.176 µM
"CN1C(=O)CN(CCC(=O)O)C(=O)c2cc3cc(C#CCN)ccc3cc21 [Cmpd 137, 1-methyl-4-(2-carboxyethyl)-8-(3-amino-1-propynyl)-3,4-dihydro 1H-1,4-napthodiazepine-2,4-dione trifluoracetate]",,0.351 µM
"CN1C(=O)CN(CCC(=O)O)C(=O)c2cc3cc(C#CCNC(=N)N)ccc3cc21 [Cmpd 138, 1-Methyl-4-(carboxyethyl)-8-(3-guanidino-1-propynyl)-3,4-dihydro-1H-1,4-naphthodiazepine-2,5-dione]",,0.009 µM
CN1C(=O)CN(CCC(=O)O)C(=O)c2cc3cc(CCCCN)ccc3cc21 [Cmpd 139],,0.153 µM
CN1C(=O)CN(CCC(=O)O)C(=O)c2cc3cc(CCCCNC(=N)N)ccc3cc21 [Cmpd 140],,0.069 µM
"CN1C(=O)CN(CCC(=O)O)C(=O)c2cc3c(cc21)CCC(CCCN)C3 (stereo not shown) [Cmpd 141, 1-Methyl-4-(carboxyethyl)-8-(3-amino-1-propyl)-3,4,7,8,9,10-hexahydrohydro-1H-1,4-naphthodiazepine-2,5-dione]",,1.8 µM
CN1C(=O)CN(CCC(=O)O)C(=O)c2cc3c(cc21)CCC(CCCNC(=N)N)C3 (stereo not shown) [Cmpd 142],,0.068 µM
CN1C(=O)CN(CCC(=O)O)C(=O)c2cc3c(cc21)CCC(CCCCN)C3 (stereo not shown) [Cmpd 143],,0.048 µM
NCCCC#Cc1ccc2c(c1)C(=O)N(CCC(=O)O)CCO2 [Cmpd 144],,12 µM
N=C(N)NCCCC#Cc1ccc2c(c1)C(=O)N(CCC(=O)O)CCO2 [Cmpd 145],,4 µM
NCCCCCc1ccc2c(c1)C(=O)N(CCC(=O)O)CCO2 [Cmpd 146],,80 µM
N=C(N)NCCCCCc1ccc2c(c1)C(=O)N(CCC(=O)O)CCO2 [Cmpd 147],,3 µM
NCCCC#Cc1ccc2c(c1)C(=O)N(CCC(=O)O)CC(Cc1ccccc1)O2 (stereo not shown) [Cmpd 148],,5.9 µM
N=C(N)NCCCC#Cc1ccc2c(c1)C(=O)N(CCC(=O)O)CC(Cc1ccccc1)O2 (stereo not shown) [Cmpd 149],,0.823 µM
"NCCOc1ccc(-c2ccc3c(c2)C(=O)N(CCC(=O)O)CC(Cc2ccccc2)O3)cc1 (stereo not shown) [Cmpd 150, trifluoroacetate]",,0.119 µM
"NCCCCCCCCOc1ccc2c(c1)C(=O)N(CCC(=O)O)CCC2 [Cmpd 151, 2-(2-carboxyethyl)-8-(8-aminooctyloxy)-2,3,4,5-tetrahydro-1H-2-benzazepin-1-one trifluoroacetate]",,> 100 µM
"N=C(N)NCCCCCCCCOc1ccc2c(c1)C(=O)N(CCC(=O)O)CCC2 [Cmpd 152, 2-(2-carboxyethyl)-8-(8-guanadinooctyloxy)-2,3,4,5-tetrahydro-1H-2-benzazepin-1-one trifluoroacetate]",,50 µM
